For assay [1], the system named is phosphorylation of ERK, KRAS G12C in NCI-H358 cells. The assay is described as follows: pERK inhibition assay, KRAS G12C in NCI-H358 cells. Format: cell-based, human. Particulars: Homo sapiens, NCI-H358, 4 hours. On the procedure:
(§1) This assay is to measure the ability of test compounds in inhibiting the phosphorylation of ERK, the downstream signaling of KRAS G12C in NCI-H358 cells, KRAS G12D in AGS cells, and KRAS G12V in SW620. NCI-H358 (ATCC-CRL5807) cells, AGS (ATCC-CRL-1739) cells, SW620 (ATCC-CCL-227) cells were all grown and maintained using RPMI-1640 medium (Thermo Fisher Scientific) with 10% fetal bovine serum and 1% penicillin/streptomycin. On the day prior to compound addition, cells were plated in tissue culture-treated 96 well plates (Corning-3699) at a density of 30,000 cell/well, 20,000 cell/well, 30,000 cell/well for NCI-H358, AGS and SW620 respectively, and allowed for attachment overnight. Diluted compounds were then added in a final concentration of 0.5% DMSO. After 4 hours of incubation, the medium was removed, 100 μL of 4% formaldehyde was added, and the assay plates were incubated at room temperature for 20 minutes. The plates were then washed once with phosphate buffered saline (PBS), and permeabilized with 100 μL of chilled methanol for 10 minutes. Non-specific antibody binding to the plates was blocked using 50 μL 1X BSA blocking buffer (Thermo-37520, 10-fold dilution by Phosphate-Buffered Saline Tween (PBST) for at least 1 hour at room temperature.
(§2) The amount of phosphor-ERK was determined using an antibody specific for phosphorylated form of ERK. Primary antibody (PERK, CST-4370, Cell Signaling Technology) was diluted 1:300 in blocking buffer, with 50 μL aliquoted to each well, and incubated overnight at 4° C. Cells was washed five times for 5 minutes with PBST. Secondary antibody (HRP-linked anti-rabbit IgG, CST-7074, Cell Signaling Technology) was diluted 1:1000 in blocking buffer, and 50 μL was added to each well and incubated 1-2 hrs at room temperature. Cells was washed […] for 5 minutes with PBST, 100 μL TMB ELISA substrate (abcam-ab171523) were added and gently shake for 20 minutes. 50 μL stop solution (abcam-ab171529) were added, and then read the signal (OD450) by EnVision.
(§3) IC50 was determined by fitting a 4-parameter sigmoidal concentration response model.

For assay [2], the system named is NCI-H358 cells (KRAS G12C). In words: Cell viability assay (Cell Counting Kit-8), KRAS G12C. Format: cell-based. Particulars: Homo sapiens, NCI-H358, 72 hrs. On the procedure: (§4) The purpose of this cellular assay was to determine the effects of test compounds on the proliferation of human cancer cell lines NCI-H358 (ATCC-CRL5807) cells, AGS (ATCC-CRL-1739) cells, SW620 (ATCC-CCL-227) over a 3-day treatment period by quantifying the amount of NADPH present at endpoint using Cell Counting Kit-8.
(§5) Cells were seeded at 5,000 cells/well (NCI-H358), 2,000 cells/well (AGS)2,000 cells/well (SW620) in 96-well assay plates (Corning-3699) and incubated overnight. On the day of the assay, diluted compounds were then added in a final concentration of 0.5% DMSO. After 72 hrs incubation, a tenth of the volume of cell counting kit 8 (Dnjindo-CK04) was added into each well. Read the signal (OD450 minus OD650) using EnVision after 2 hrs incubation. IC50 was determined by fitting a 4-parameter sigmoidal concentration response model.
On the technique in general: Tetrazolium assays rely on reduction of a dye to a coloured formazan, in cell work by metabolically active cells.

Assay [3] has as its system phosphorylation of ERK, KRAS G12D in AGS cells. In words: pERK inhibition assay, KRAS G12D in AGS cells. Particulars: Homo sapiens, 4 hours. Format: cell-based, human. On the procedure:
as §1, §2, §3

Assay [4] has as its target KRAS G12V-BRAF complex (Homo sapiens (Human), UniProt P01116+P62937, G12V). In words: KRAS-BRAF with CYPA (500 nM) interaction assay (TR-FRET), G12V. Format: biochemical. As for the experimental part:
(§6) Kras-BRAF with CYPA (500 nM) Interaction Assay In this example, TR-FRET was also used to measure the compound or compound-CYPA dependent disruption of the KRAS G12C-BRAF complex. This protocol was also used to measure disruption of KRAS G12D or KRAS G12V binding to BRAF by a compound of the invention, respectively. […] Compound was present in plate wells as a 16-point 3-fold dilution series starting at a final concentration of 10 μM and incubated for 3 hours. […] TR-FRET signal was read on a […] microplate reader (Ex320 nm, Em 665/615 nm). Compounds that facilitate disruption of the KRAS-BRAF complex were identified as those eliciting a decrease in the TR-FRET ratio relative to DMSO control wells.

The subject of assay [5] is AGS cells (KRAS G12D). The assay is described as follows: Cell viability assay (Cell Counting Kit-8), KRAS G12D. Format: cell-based. As to conditions: Homo sapiens, 72 hrs. As for the experimental part: as §4, §5
For assay [6], the system named is SW620 cells (KRAS G12V). In words: Cell viability assay (Cell Counting Kit-8), KRAS G12V. Format: cell-based. Particulars: Homo sapiens, SW-620, SW620, 72 hrs. As for the experimental part: as §4, §5
Assay [7] has as its target KRAS G12D-BRAF complex (Homo sapiens (Human), UniProt P01116+P62937, G12D). The assay is described as follows: KRAS-BRAF with CYPA (500 nM) interaction assay (TR-FRET), G12D. Format: biochemical. On the procedure:
as §6
(In general: TR-FRET usually uses a lanthanide donor and a delayed reading to cut background.)

Assay [8] has as its system phosphorylation of ERK, KRAS G12V in SW620 cells. The assay is described as follows: pERK inhibition assay, KRAS G12V in SW620. Format: cell-based, human. Particulars: Homo sapiens, SW-620, SW620, 4 hours. On the procedure: as §1, §2, §3
Assay [9] concerns the target KRAS G12C-BRAF complex (Homo sapiens (Human), UniProt P01116+P62937, G12C). In words: KRAS-BRAF with CYPA (500 nM) interaction assay (TR-FRET), G12C. Format: biochemical. As for the experimental part: as §6

The structures appear in SMILES notation. Where only a bound is given, the exact number is not on record here.

Chain of KRAS G12C-BRAF complex (P01116-2 other isoform, or with tags, fused parts or gaps G12C): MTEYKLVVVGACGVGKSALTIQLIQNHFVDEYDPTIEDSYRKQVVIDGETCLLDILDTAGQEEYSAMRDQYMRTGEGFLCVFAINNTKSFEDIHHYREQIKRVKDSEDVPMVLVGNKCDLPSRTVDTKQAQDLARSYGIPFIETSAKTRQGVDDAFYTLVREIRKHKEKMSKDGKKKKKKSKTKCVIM
Chain of KRAS G12C-BRAF complex (P62937 whole entry): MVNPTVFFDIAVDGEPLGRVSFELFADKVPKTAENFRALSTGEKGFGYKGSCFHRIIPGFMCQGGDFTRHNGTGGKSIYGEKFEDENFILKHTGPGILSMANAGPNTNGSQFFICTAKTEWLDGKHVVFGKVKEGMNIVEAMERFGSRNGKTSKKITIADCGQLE
Chain of KRAS G12V-BRAF complex (P01116-2 other isoform, or with tags, fused parts or gaps G12V): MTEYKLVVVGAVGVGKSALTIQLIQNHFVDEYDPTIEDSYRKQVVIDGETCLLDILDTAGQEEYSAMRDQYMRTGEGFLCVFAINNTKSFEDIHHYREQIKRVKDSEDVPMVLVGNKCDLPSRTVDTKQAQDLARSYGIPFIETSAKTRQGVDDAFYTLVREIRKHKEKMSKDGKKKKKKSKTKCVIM
Chain of KRAS G12V-BRAF complex (P62937 whole entry): as the sequence (P62937 whole entry) above
Chain of KRAS G12D-BRAF complex (P01116-2 other isoform, or with tags, fused parts or gaps G12D): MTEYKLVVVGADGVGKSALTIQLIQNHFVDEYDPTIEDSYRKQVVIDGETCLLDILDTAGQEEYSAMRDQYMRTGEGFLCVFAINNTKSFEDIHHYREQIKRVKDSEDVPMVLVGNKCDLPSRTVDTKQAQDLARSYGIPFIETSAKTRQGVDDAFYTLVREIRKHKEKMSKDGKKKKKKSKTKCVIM
Chain of KRAS G12D-BRAF complex (P62937 whole entry): as the sequence (P62937 whole entry) above

Regarding `CO[C@@H](C)c1ncc(N2CCN(C)CC2)cc1-c1c2c3cc(c(F)cc3n1CC(F)(F)F)-c1csc(n1)C[C@H](NC(=O)[C@H](C(C)C)N(C)C(=O)N1CC(N(C)C)C1)C(=O)N1CCC[C@H](N1)C(=O)OCC(C)(C)C2` (atropisomer, axis not shown; (M)) [Example 1, 3-(dimethylamino)-N-[(1S)-1-[[(7S,13S)-24-fluoro-(20M)-20-[2-[(1S)-1-methoxyethyl]-5-(4-methylpiperazin-1-yl)-3-pyridyl]-17,17-dimethyl-8,14-dioxo-21-(2,2,2-trifluoroethyl)-15-oxa-4-thia-9,21,27,28-tetrazapentacyclo[17.5.2.1^2,5.1^9,13.0^22,26]octacosa-1(25),2,5 (28),19,22 (26),23-hexaen-7-yl]carbamoyl]-2-methyl-propyl]-N-methyl-azetidine-1-carboxamide], the IC50 in assay [1] worked out at 1 nM; in assay [2] it was 2 nM; in [3], 2 nM; in assay [4], 70 nM; in assay [5] it was 13 nM; in assay [6], 1 nM. Moreover, the values for the half-maximal inhibitory concentration (IC50) in [7], in assay [8] and in [9] were 147 nM, 1 nM and 46 nM, respectively.

On to `CCn1c(-c2cc(N3CCN(C)CC3)cnc2[C@H](C)OC)c2c3cc(c(F)cc31)-c1csc(n1)C[C@H](NC(=O)[C@H](C(C)C)N(C)C(=O)N1CCOCC1)C(=O)N1CCC[C@H](N1)C(=O)OCC(C)(C)C2` (atropisomer, axis not shown; (M)) [Example 10, N-[(1S)-1-[[(7S,13S)-21-ethyl-24-fluoro-(20M)-20-[2-[(1S)-1-methoxyethyl]-5-(4-methylpiperazin-1-yl)-3-pyridyl]-17,17-dimethyl-8,14-dioxo-15-oxa-4-thia-9,21,27,28-tetrazapentacyclo[17.5.2.1^2,5.1^9,13.0^22,26]octacosa-1 (25),2,5 (28),19,22 (26),23-hexaen-7-yl]carbamoyl]-2-methyl-propyl]-N-methyl-morpholine-4-carboxamide], for which the IC50 in assay [1] was determined as 14 nM; in assay [2] it was 6 nM; in [3] it was 8 nM; in assay [4], 149 nM; in assay [5], 40 nM; in assay [6], 6 nM. For the same compound, the IC50 in assay [7] was 186 nM; in assay [8], 6 nM; in assay [9] it was 61 nM.

Take `CCn1c(-c2cc(N3CCOCC3)cnc2[C@H](C)OC)c2c3cc(c(F)cc31)-c1csc(n1)C[C@H](NC(=O)[C@H](C(C)C)N(C)C(=O)N1CC(F)(F)C1)C(=O)N1CCC[C@H](N1)C(=O)OCC(C)(C)C2` (atropisomer, axis not shown; (M)) [Example 7, N-[(1S)-1-[[(7S,13S)-21-ethyl-24-fluoro-(20M)-20-[2-[(1S)-1-methoxyethyl]-5-morpholino-3-pyridyl]-17,17-dimethyl-8,14-dioxo-15-oxa-4-thia-9,21,27,28-tetrazapentacyclo[17.5.2.1^2,5.1^9,13.0^22,26]octacosa-1 (25),2,5 (28),19,22 (26),23-hexaen-7-yl]carbamoyl]-2-methyl-propyl]-3,3-difluoro-N-methyl-azetidine-1-carboxamide]: the IC50 in [4] worked out at 611 nM; in assay [7], 472 nM; in assay [9], 95 nM.

With `CCn1c(-c2cc(N3CCOCC3)cnc2[C@H](C)OC)c2c3cc(c(F)cc31)-c1csc(n1)C[C@H](NC(=O)[C@H](C(C)C)N(C)C(=O)NCC(F)(F)F)C(=O)N1CCC[C@H](N1)C(=O)OCC(C)(C)C2` (atropisomer, axis not shown; (M)) [Example 13, (2S)-N-[(7S,13S)-21-ethyl-24-fluoro-(20M)-20-[2-[(1S)-1-methoxyethyl]-5-morpholino-3-pyridyl]-17,17-dimethyl-8,14-dioxo-15-oxa-4-thia-9,21,27,28-tetrazapentacyclo[17.5.2.1^2,5.1^9,13.0^22,26]octacosa-1 (25),2,5 (28),19,22 (26),23-hexaen-7-yl]-3-methyl-2-[methyl(2,2,2-trifluoroethylcarbamoyl)amino]butanamide], the IC50 in assay [1] was 19 nM; in [2] it was 26 nM; in assay [3] it was 46 nM; in assay [4] it was over 10000 nM; in assay [5], 447 nM; in assay [6], 29 nM. In addition, the IC50 was over 10000 nM in [7], 8 nM in [8] and over 10000 nM in assay [9].

Consider `CO[C@@H](C)c1ncc(N2CCN(CC(F)(F)F)CC2)cc1-c1c2c3c(F)c(ccc3n1CC(F)(F)F)-c1csc(n1)C[C@H](NC(=O)[C@H](C(C)C)N(C)C(=O)N1CCOCC1)C(=O)N1CCC[C@H](N1)C(=O)OCC(C)(C)C2` (atropisomer, axis not shown; (M)) [Example 17, N-[(1S)-1-[[(7S,13S)-25-fluoro-(20M)-20-[2-[(1S)-1-methoxyethyl]-5-[4-(2,2,2-trifluoroethyl)piperazin-1-yl]-3-pyridyl]-17,17-dimethyl-8,14-dioxo-21-(2,2,2-trifluoroethyl)-15-oxa-4-thia-9,21,27,28-tetrazapentacyclo[17.5.2.1^2,5.1^9,13.0^22,26]octacosa-1 (25),2,5 (28),19,22 (26),23-hexaen-7-yl]carbamoyl]-2-methyl-propyl]-N-methyl-morpholine-4-carboxamide], for which the IC50 amounted to 8 nM in [1]; 4 nM in assay [2]; 4 nM in assay [3]; 4 nM in assay [4]; 46 nM in assay [5]; 6 nM in assay [6]. The figures for the IC50 in [7], in [8] and in assay [9] were 7 nM, 4 nM and 2 nM, respectively.

A word on the IC50: it is the concentration that gives 50% inhibition.

The record behind these values is patent US20250268894A1, “MACROCYCLE COMPOUNDS FOR THE TREATMENT OF CANCER” (Hoffmann-La Roche Inc., priority 2022, published 2025).
